Results reported in patent publication US12179400B2, “Multiple-matrix monolithic moulded part for the diffusion of active ingredients and method for obtaining same” (AB7 Innovation S.A.S.U., priority 2017, dated 2024).

Columns and labels:
Assay type in all cases: physicochemical
[1] = GPC assay of active ingredients (repellent tracers) in EVA collars at T0 after injection and after 7 days of stability at 50° C.; details: for cumulative loss: collar (C1), T0 loss plus loss after 7 days at 50° C.; for Active ingredient loss (%): EVA
Method: In a 1 L beaker, 200 g of vitamin F, 160 g of Mentha pulegium essential oil, 31.2 g of eucalyptus essential oil, 8 g of lemongrass essential oil and 0.8 g of geraniol are mixed. The mixture is stirred lightly until a homogeneous liquid mixture is obtained.
3519.2 g of EVA are introduced into a cylindrical mixer preheated to 70° C. Then, the above homogeneous liquid mixture is slowly introduced. The mixture is left to be stirred gently until dry granules are obtained. 80 g of pistachio green dye are added and then mixed for 5 minutes. A compound is obtained consisting of EVA polymers loaded with 11.1% by weight of all the active ingredients combined, or 5.5% by weight of vitamin F and 5.6% by weight of repellents.
The above compound is injected into a collar 60 cm long by 1 cm wide and weighing 25 g.
The collars (C1) thus obtained were analyzed by GPC assay of the active ingredients contained in the matrix at time zero (T0) after injection, then after 7 days of stability at 50° C. in watertight-sealed packaging.
In parallel, by proceeding according to the same protocol, vitamin F was replaced by coconut oil, in the same proportions, then the corresponding collar compound (C2) was injected. The analyses by GPC assay of the collars (C2) gave the results recorded in Table 2. […]

[2] = In vitro release profile in plant oil from antiparasitic TPU (EPAMOULD) collar; details: for release profile: bi-injected collar: one matrix 8% permethrin in 5% SANTICIZER 141, other matrix 4% deltamethrin in 22% SANTICIZER 141; for amount released after 15 days: single EPAMOULD matrix with 8% permethrin and 4% deltamethrin, both in 22% SANTICIZER 141
Method: 8% permethrin is solubilized in 22% of SANTICIZER 141® Then, 4% deltamethrin is added, before adding the homogeneous mixture in a single EPAMOULD® matrix.
FIG. 3: In vitro release profile in the plant oil from the pest control collar containing 8% permethrin and 4% deltamethrin, both solubilized in 22% SANTICIZER 141®
Therefore, the same amount (8%) of permethrin was solubilized in 5% SANTICIZER® 141 prior to incorporation into a EPAMOULD® matrix as above, in order to obtain a permethrin compound. In parallel, the same quantity of deltamethrin (4%) solubilized in 22% of SANTICIZER® 141 was mixed, prior to incorporation into a EPAMOULD® matrix, in order to obtain a deltamethrin compound.
The two compounds obtained are injected simultaneously in a collar using the bi-injection press as described in Example 1.
FIG. 4: In vitro release profile in plant oil of the antiparasitic collar obtained by bi-injection including a matrix containing 8% of permethrin solubilized in 5% of SANTICIZER 141® and the other matrix containing 4% of deltamethrin dissolved in 22% of SANTICIZER 141®.

[3] = Release profile at room temperature of active ingredient incorporated at 10% into polymer matrix bracelets; details: for release profile: 10% loading
Method: Studies carried out by the inventors have made it possible to prepare the release profiles of limonene as a function of the polymers used, namely PEBA, EVA and the bio-based polyethylene (PE) copolymer. Compounds loaded with 10% limonene were injected in a bracelet.
FIG. 1: release profile at room temperature of limonene incorporated at 10% into different polymer matrices.
10% essential oil of Eucalyptus radiata has been incorporated into an EVA polymer matrix.
FIG. 2: release profile at room temperature of Eucalyptus radiata essential oil incorporated at 10% into an EVA matrix

[4] = collars (C1), 5.5% Vitamin F and 5.6% repellents, at T0 after injection
[5] = collars (C1), 5.5% Vitamin F and 5.6% repellents, at T = 7 days at 50° C., watertight-sealed packaging
[6] = collars (C2), 5.5% coconut and 5.6% repellents, at T0 after injection
[7] = collars (C2), 5.5% coconut and 5.6% repellents, at T = 7 days at 50° C.
[8] = PEBA bracelet loaded with 10% limonene

Compound | cumulative loss [1] [%] | Active ingredient loss (%) [1, 4] [%] | Active ingredient loss (%) [1, 5] [%] | Active ingredient loss (%) [1, 6] [%] | Active ingredient loss (%) [1, 7] [%] | also measured
CC12CCC(CC1)C(C)(C)O2 [Cineole] | 16 | 12 | 4 | 0 | 0 | Active ingredient loss (%) ([1]; collars (C1), 5.5% Vitamin F and 5.6% repellents, at T0 after injection, listed as cineole): 12%; Active ingredient loss (%) ([1]; collars (C1), 5.5% Vitamin F and 5.6% repellents, at T = 7 days at 50° C., watertight-sealed packaging, listed as cineole): 4%
CC(C)=CCCC(C)CC=O (centres unmarked) [Citronellal] | 50 | 12 | 38 | 0 | 3 | Active ingredient loss (%) ([1]; collars (C1), 5.5% Vitamin F and 5.6% repellents, at T0 after injection, listed as citronellal): 12%; Active ingredient loss (%) ([1]; collars (C1), 5.5% Vitamin F and 5.6% repellents, at T = 7 days at 50° C., watertight-sealed packaging, listed as citronellal): 38%; Active ingredient loss (%) ([1]; collars (C2), 5.5% coconut and 5.6% repellents, at T = 7 days at 50° C., listed as citronellal): 3%
CC(C)=CCCC(C)CCO (centres unmarked) [Citronellol] | 27 | 7 | 20 | 3 | 0 | Active ingredient loss (%) ([1]; collars (C1), 5.5% Vitamin F and 5.6% repellents, at T0 after injection, listed as citronellol): 7%; Active ingredient loss (%) ([1]; collars (C1), 5.5% Vitamin F and 5.6% repellents, at T = 7 days at 50° C., watertight-sealed packaging, listed as citronellol): 20%; Active ingredient loss (%) ([1]; collars (C2), 5.5% coconut and 5.6% repellents, at T0 after injection, listed as citronellol): 3%
CC(C)=CCC/C(C)=C/CO [Geraniol, geraniol] | 36 | 6 | 30 | 0 | 0 | Active ingredient loss (%) ([1]; collars (C1), 5.5% Vitamin F and 5.6% repellents, at T0 after injection, listed as geraniol): 6%; Active ingredient loss (%) ([1]; collars (C1), 5.5% Vitamin F and 5.6% repellents, at T = 7 days at 50° C., watertight-sealed packaging, listed as geraniol): 30%
CC(C)=C1CC[C@@H](C)CC1=O [Pulegone] | – | 11 | 10 | 0 | 0 | –
CC1(C)[C@H](C(=O)O[C@H](C#N)c2cccc(Oc3ccccc3)c2)[C@@H]1C=C(Br)Br [deltamethrin] | – | – | – | – | – | release profile [2]: substantially similar release profile; amount released after 15 days [2]: 18%
C=C(C)[C@H]1CC=C(C)CC1 [limonene, Limonene] | – | – | – | – | – | release profile ([3]; EVA matrix): releases gradually; amount released after 2 days [3, 8]: 70%; time until bracelet empty [3, 8]: 6 days; release profile ([3]; PEBA bracelet): very quickly and in a significant quantity; release profile ([3]; bio-based polyethylene (PE) copolymer bracelet): retains; remaining amount after 10 days ([3]; incorporated at 10% into EVA matrix): 42%
CC1(C)C(C=C(Cl)Cl)C1C(=O)OCc1cccc(Oc2ccccc2)c1 (centres unmarked) [permethrin] | – | – | – | – | – | release profile [2]: substantially similar release profile; amount released after 15 days [2]: 52%
